Laboratory results as given in patent US10059968B2, “Method for increasing lipid content in microorganisms and modified microorganisms therefrom” (Reliance […], priority 2014, dated 2018).

System: Chlamydomonas reinhardtii CW-15 cells
Test: Nile Red Assay of lipid content in cells grown with cycloheximide
Assay type: cell-based
Procedure: FIG. 4A illustrates the graphical representation of fluorescence observed for Chlamydomonas reinhardtii CW-15 cells (Day 4) in Tris Acetate Phosphate medium grown with and without cycloheximide using Nile Red Assay;
Chemical inhibition of protein synthesis is carried out using cycloheximide. Chlamydomonas reinhardtii CW-15 (Chlamydomonas Resource Center, USA), is grown in the presence of varying amounts of cycloheximide (50 μM to 500 μM) to find out the effect of inhibition of protein synthesis on lipid content. […] FIGS. 4B and 4C depict the Nile Red stained cells of Chlamydomonas reinhardtii CW-15 cells grown without the protein inhibitor and in the presence of the protein inhibitor, respectively.

C[C@@H]1C[C@@H]([C@H](O)CC2CC(=O)NC(=O)C2)C(=O)[C@@H](C)C1 [cycloheximide]
lipid content (Nile Red fluorescence) (Chlamydomonas reinhardtii CW-15 grown with cycloheximide 50 μM to 500 μM vs without, Day 4, Tris Acetate Phosphate medium): increase in lipid content
lipid content (Nile Red fluorescence) (cells grown in the presence of 50 μM of cycloheximide): Highest lipid content
lipid content (Nile Red fluorescence) (higher amounts of cycloheximide (more than 200 μM)): decrease in the lipid content
